Numbers after ± are expanded uncertainties.
Assays:
[1] = Liquid, DSC
[2] = Boiling temperature at pressure P; conditions: Liquid, DSC

## C1CCCCC1 [cyclohexane]
[1]; 353.82 K
  vapor or sublimation pressure: 101.3 ± 7.9 kPa

## CO [methanol]
[1]; 337.78 K
  vapor or sublimation pressure: 101.3 ± 7.9 kPa

## CC(C)O [propan-2-ol]
[1]; 355.71 K
  vapor or sublimation pressure: 101.3 ± 7.9 kPa

## Cc1ccccc1 [toluene]
[1]; 383.6 K
  vapor or sublimation pressure: 101.3 ± 7.9 kPa

## O [water]
[2]; 92.9 kPa
  Boiling temperature at pressure P: 97.82 ± 1.6 °C
[2]; 93 kPa
  Boiling temperature at pressure P: 97.84 ± 1.6 °C
[2]; 93.5 kPa
  Boiling temperature at pressure P: 97.94 ± 1.6 °C
[2]; 94.1 kPa
  Boiling temperature at pressure P: 98.06 ± 1.6 °C
[2]; 101.3 kPa
  Boiling temperature at pressure P: 100.01 ± 1.6 °C
[2]; 395 kPa
  Boiling temperature at pressure P: 143.21 ± 1.6 °C
[2]; 585 kPa
  Boiling temperature at pressure P: 157.83 ± 1.6 °C
[2]; 592 kPa
  Boiling temperature at pressure P: 158.51 ± 1.6 °C
[2]; 791 kPa
  Boiling temperature at pressure P: 169.38 ± 1.6 °C
[2]; 1091 kPa
  Boiling temperature at pressure P: 183.29 ± 1.6 °C
[2]; 1392 kPa
  Boiling temperature at pressure P: 194.26 ± 1.6 °C
[2]; 1689 kPa
  Boiling temperature at pressure P: 203.20 ± 1.6 °C
[2]; 2088 kPa
  Boiling temperature at pressure P: 213.26 ± 1.6 °C
